Assay results from patent US7071218B2, “N-substituted heterocycles for the treatment of hypercholesteremia, dyslipidemia and other metabolic disorders; cancer, and other diseases” (Incyte San Diego Incorporated, priority 2001, dated 2006).

Columns and labels:
[1] = tested on: 3T3-L1 cells; assay: 3T3-L1 adipocyte differentiation (lipid content), alone or with rosiglitazone (BRL49653); assay type: cell-based, mouse; conditions: 7 days of treatment; for lipid accumulation / differentiation of 3T3-L1 cells by the compound alone: 1e-10M to 1e-5M; for inhibition of adipocyte differentiation / lipid accumulation induced by rosiglitazone (BRL49653): in combination with rosiglitazone
From the text: The mouse preadipocyte cell line 3T3-L1 has been extensively used to study adipocyte differentiation. Upon stimulation with differentiating agents, preadipocytes typically undergo one cell cycle expansion and then they are growth arrested and dramatically change their shape to become more rounded cells, loaded with lipids, in a fashion closely reflecting adipogenesis in vivo. In this well-known process of differentiation, peroxisome proliferator activated receptor gamma (PPARγ) and retinoid X receptor (RXR) play a key role. PPARγ binds as an obligatory heterodimer with RXR to specific responsive sequences in the promoter region of target genes. In the particular case of PPARγ/RXR heterodimers, both receptors can be activated via their specific ligands. As a consequence of such activation, adipocyte-specific genes are turned on (C/EBP, aP2, LPL, adipsin, etc) and adipocyte differentiation results. Because lipid accumulation is the endpoint of adipocyte differentiation, the quantification of lipids which have accumulated in cells upon treatment with the compound(s) of interest, will indicate the ability of that compound to trigger adipocyte differentiation. More importantly, the potency of that compound can be estimated as well based on the total amount of lipids accumulated. The amount of lipid measured at the end of the assay for each tested compound is here compared to that of Compound 73 at 0.1 μM, which is considered 100% (see FIG. 11A).
In the particular case of measuring the potential antagonistic activity of some compounds, the putative antagonist is combined together with an agonist (such as the PPARγ agonist BRL49653). Thus, the amount of lipids accumulated in response to BRL49653 (considered as 100% in this case), is decreased by the compound with antagonistic activity (see FIG. 11B).
Materials and Methods: Mouse embryo fibroblast 3T3-L1 cell line, from American Type Culture Collection (ATCC), was used as a model of adipocyte differentiation.
Growing medium (GM): DME Dulbecco's modified Eagle's medium containing 4500 mg/L glucose; 4 mM L-glutamine; 10 U/ml Pen-G; 10 mcg/ml and 10% Calf Serum (CS).
Differentiation medium (DM): DME Dulbecco's modified Eagle's medium containing 4500 mg/L glucose; 4 mM L-glutamine; 10 U/ml Pen-G; 10 mcg/ml and 10% Fetal Calf Serum (FCS). Cells are always kept at 10% CO2.
Cells were seeded at 3,000 cells/well in 96 well-tissue culture plates in growing medium.
Two days after reaching confluence, cells were treated with the different compounds of interest in DM (Day 0). Drugs were replaced every 2–3 days in DM. Differentiation was assessed after 7 days of treatment, by measuring the lipid content in the cells, using the Triglyceride (INFINITY) reagent (Quantitative assay). • Controls: All cells, including control cells (vehicle), are treated with the same volume of dimethyl sulfoxide (DMSO) never exceeding 0.1% final solvent concentration. As a positive control for differentiation, cells were treated with 10 μg insulin per ml and 2.5 μM dexamethasone (Ins/Dex).

[2] = biological target: T1, AKT1/PKBα (Homo sapiens, UniProt P31749); assay: In vitro assay for AKT1/PKBα kinase activity inhibition; assay type: biochemical; conditions: at 5 μM, pre-incubation 10 minute at 30° C.
T1 construct: purchased Upstate 14-276
T1 sequence (P31749 whole entry): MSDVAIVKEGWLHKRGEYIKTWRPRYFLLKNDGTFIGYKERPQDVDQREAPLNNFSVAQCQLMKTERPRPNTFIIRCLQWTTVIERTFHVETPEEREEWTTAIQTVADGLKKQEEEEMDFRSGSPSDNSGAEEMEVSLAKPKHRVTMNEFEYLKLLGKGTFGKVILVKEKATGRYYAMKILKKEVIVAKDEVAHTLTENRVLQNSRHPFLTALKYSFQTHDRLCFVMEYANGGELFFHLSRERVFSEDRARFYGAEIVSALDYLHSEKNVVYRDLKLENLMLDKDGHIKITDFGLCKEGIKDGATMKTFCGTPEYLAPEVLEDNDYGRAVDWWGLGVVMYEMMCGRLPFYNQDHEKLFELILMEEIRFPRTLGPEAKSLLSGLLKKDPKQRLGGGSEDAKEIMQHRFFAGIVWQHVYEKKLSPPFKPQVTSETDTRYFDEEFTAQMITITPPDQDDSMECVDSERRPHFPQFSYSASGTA
Experimental: The assay was performed using a similar approach as described by Standaert, Mary L., et al. J. Biol. Chem. 1999, 274, 25308–25316; and Aman, M. J. et al, J. Biol. Chem. 1998, 273, 33922–33928. The assay was performed using purified recombinant His-tagged AKT1/PKBα enzyme purchased from Upstate catalog # 14-276 following the manufacturer instruction. The assay is to measure phosphotransferase activity in purified His-tagged AKT1/PKBα. The purified enzyme is used to transfer the γ phosphate of [γ-32P]-ATP to a specific substrate, AKT/GSK peptide [RPRAATA] (upstate Catalog # 12-340). The phosphorylated substrate is then separated from the residual [γ-32P]ATP by using P81 phosphocellulose paper accompanied with extensive washing followed by quantitation using scintillation counter. The assay is linear for incubation times for up to 30 minutes and incorporation of up to 20% of total ATP. This enzyme assay is rapid, convenient and specific for AKT/PKB.
For testing the effect of Compound 2 on the AKT kinase activity, 0.3 μg AKT was pre-incubated with 1 μl of different Compound 2 stock concentration to give the final indicated concentration in total volume of 20 μl reaction buffer. As control 0.3 μg AKT was incubated with 1 μl Vehicle or alone in total volume of 20 μl reaction buffer. After a 10 minute incubation at 30° C., the kinase reaction was carried out according to the instruction of the manufacturer.

[3] = tested on: LXR; assay: In vitro transactivation assay in CV-1 cells, antagonism of T0901317-induced Gal-LXR activation; assay type: cell-based; conditions: with 1 μM agonist T0901317
From the text: (§1) In vitro screens such as the transactivation assay can be used to measure the ability of a compound to inhibit a nuclear receptor regulating lipid or carbohydrate uptake, synthesis or metabolism. In the assay described herein compounds can be identified that can inhibit activation of the following nuclear receptors: LXR, PPARα, PPARγ and FXR. This activity can be useful to treat lipid disorders such as hypercholesteremia and obesity.
(§2) Cell line: Kidney Green Monkey CV-1 cells.
(§3) Growing culturing medium: Dulbecco's modified Eagle's medium (DMEM) supplememnted with 10% fetal calf serum (FCS).
(§4) Procedure: CV-1 cells were plated in 48 well-plate culture plates, at a density of 10,000 cells/well, 24 h prior to transfection. One to three hours before transfection, cells were fed with fresh medium. A modified calcium phosphate precipitation procedure was used for transient transfection (Pfahl, M. et al., 1990, Methods in Enzymology 189: 256).
(§5) Typically, 40 ng reporter plasmid and 20 ng of each receptor expression vector were mixed, together with 10 ng of β-galactosidase control plasmid (pCH110, Pharmacia, Piscataway, N.J.) and Bluescript plasmid to obtain a total of 400 ng DNA per well. To this mixture 1 μl of 2.5M CaCl2 and 10 μl of BBS buffer, pH 6.95, were added afterward. […]

[4] = biological target: T2, PPARγ (Homo sapiens, UniProt P37231); assay: In vitro transactivation assay in CV-1 cells, antagonism of BRL49653-induced Gal-PPARγ activation; assay type: cell-based; conditions: with 1 μM agonist BRL49653, dose-dependent
T2 construct: expressed in transfected cells; host or cells: CV-1 (green monkey kidney) cells, transient calcium phosphate transfection
T2 sequence (P37231 238-503 limits assumed): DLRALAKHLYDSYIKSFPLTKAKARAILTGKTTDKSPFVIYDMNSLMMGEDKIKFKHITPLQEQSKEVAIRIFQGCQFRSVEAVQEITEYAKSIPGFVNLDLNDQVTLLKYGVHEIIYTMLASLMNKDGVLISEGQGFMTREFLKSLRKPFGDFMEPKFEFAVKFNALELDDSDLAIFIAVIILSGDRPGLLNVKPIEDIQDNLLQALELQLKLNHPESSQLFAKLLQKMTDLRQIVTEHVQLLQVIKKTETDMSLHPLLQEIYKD
From the text: as §1, §2, §3, §4, §5

Row | SMILES | inhibition of AKT activity compared to Control or Vehicle [2] | lipid accumulation / differentiation of 3T3-L1 cells by the compound alone [1] | inhibition of adipocyte differentiation / lipid accumulation induced by rosiglitazone (BRL49653) [1] | other results
1 | COc1cc2c(cc1-c1c(/C=C3\SC(=S)N(CC(=O)O)C3=O)cc(-c3ccccc3)cc1OC)C(C)(C)CCC2(C)C [Compound 72, reference compound] | – | induced lipid accumulation | – | –
2 | COc1cc2c(cc1-c1c(/C=C3\SC(=S)N(CC(=O)O)C3=O)cc(-c3ccccc3)cc1OC)C(C)(C)CCC2(C)C [Compound 8, {5-[5-Phenyl-3-methoxy-2-(3-methoxy-5,5,8,8-tetramethyl-5,6,7,8-tetrahydro-naphthalen-2-yl)-benzylidene]-4-oxo-2-thioxo-thiazolidin-3-yl}-acetic acid] | – | lacked the ability to differentiate 3T3-L1 cells by themselves | strongly inhibited | antagonism of T0901317-induced LXR activation (in words) [3]: only antagonize the activation activity of BRL49653 for PPARγ; inhibition at 10 µM [4]: 80 to 90%
3 | Cc1cc2c(cc1-c1cc(/C=C3\SC(=S)N(CC(=O)O)C3=O)ccc1OC(F)(F)F)C(C)(C)CCC2(C)C [Compound 2, {5-[4-Trifluoromethoxy-3-(3,5,5,8,8-pentamethyl-5,6,7,8-tetrahydronaphthalen-2-yl)-benzylidene]-4-oxo-2-thioxo-thiazolidin-3-yl}-acetic acid] | showed inhibition | lacked that ability | potently inhibited | –
4 | COc1ncc(/C=C2\SC(=S)N(CC(=O)O)C2=O)cc1-c1cc2c(cc1C)C(C)(C)CCC2(C)C [Compound 3, {5-[6-Methoxy-5-(3,5,5,8,8-pentamethyl-5,6,7,8-tetrahydro-naphthalen-2-yl)-pyridin-3-ylmethylene]-4-oxo-2-thioxo-thiazolidin-3-yl}-acetic acid] | showed inhibition | – | – | –
5 | COc1ccc(/C=C2\SC(=S)N(CC(=O)O)C2=O)cc1-c1cc2c(cc1C)C(C)(C)CCC2(C)C [Compound 1, {5-[4-Methoxy-3-(3,5,5,8,8-pentamethyl-5,6,7,8-tetrahydro-naphthalen-2-yl)-benzylidene]-4-oxo-2-thioxo-thiazolidin-3-yl}-acetic acid] | – | lacked that ability | potently inhibited | –
6 | COc1ccc(/C=C2\SC(=S)NC2=O)cc1-c1cc2c(cc1C)C(C)(C)CCC2(C)C [Compound 71, reference compound] | – | induced lipid accumulation | – | –
7 | COc1ccc(/C=C2\SC(=O)N(CCc3ccccn3)C2=O)cc1-c1cc2c(cc1C)C(C)(C)CCC2(C)C [Compound 6, 5-[4-Methoxy-3-(3,5,5,8,8-pentamethyl-5,6,7,8-tetrahydro-naphthalen-2-yl)-benzylidene]-3-(2-pyridin-2-yl-ethyl)-thiazolidine-2,4-dione] | – | – | – | melting point: 170 to 171 °C

The next lines start with results.

Row | inhibition of AKT activity compared to Control or Vehicle [2] | SMILES | lipid accumulation / differentiation of 3T3-L1 cells by the compound alone [1] | inhibition of adipocyte differentiation / lipid accumulation induced by rosiglitazone (BRL49653) [1] | other results
8 | showed inhibition | CCOc1ccc(-c2ccc(OC)c(C(C)(C)C)c2)cc1/C=C1\SC(=S)N(CC(=O)O)C1=O [Compound 67] | – | – | –
9 | showed inhibition | CN(C)c1ccc(/C=C2\SC(=S)N(CC(=O)O)C2=O)cc1-c1cc2c(cc1N(C)C)C(C)(C)CCC2(C)C [Compound 10, {5-[4-Dimethylamino-3-(3-dimethylamino-5,5,8,8-tetramethyl-5,6,7,8-tetrahydro-naphthalen-2-yl)-benzylidene]-4-oxo-2-thioxo-thiazolidin-3-yl}-acetic acid] | – | – | –
